Results taken from ChEMBL document CHEMBL1135004, “Natural and synthetic geiparvarins are strong and selective MAO-B inhibitors. Synthesis and SAR studies” (Bioorg Med Chem Lett, 2002).

Key:
[1] = molecular target: T1, Amine oxidase [flavin-containing] B (Homo sapiens, UniProt P27338); assay: Inhibitory potency against Monoamine oxidase B
T1 sequence (P27338 whole entry): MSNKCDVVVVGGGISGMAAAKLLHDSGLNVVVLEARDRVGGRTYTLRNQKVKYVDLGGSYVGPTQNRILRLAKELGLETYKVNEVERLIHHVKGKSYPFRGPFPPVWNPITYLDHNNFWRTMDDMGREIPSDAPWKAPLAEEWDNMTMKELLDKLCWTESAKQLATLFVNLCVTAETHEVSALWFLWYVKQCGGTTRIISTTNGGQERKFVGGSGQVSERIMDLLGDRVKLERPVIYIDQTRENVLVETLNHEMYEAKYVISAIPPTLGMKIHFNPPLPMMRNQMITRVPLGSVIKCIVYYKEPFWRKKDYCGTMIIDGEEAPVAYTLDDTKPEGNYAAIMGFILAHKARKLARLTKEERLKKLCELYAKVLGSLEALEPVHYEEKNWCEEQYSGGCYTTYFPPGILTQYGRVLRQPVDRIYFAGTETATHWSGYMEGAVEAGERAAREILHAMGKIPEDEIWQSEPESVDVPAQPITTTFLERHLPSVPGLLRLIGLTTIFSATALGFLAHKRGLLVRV

[2] = molecular target: T2, Monoamine oxidase A (Homo sapiens, UniProt P21397); assay: Inhibitory potency against Monoamine oxidase A at 10 uM
T2 sequence (P21397 whole entry): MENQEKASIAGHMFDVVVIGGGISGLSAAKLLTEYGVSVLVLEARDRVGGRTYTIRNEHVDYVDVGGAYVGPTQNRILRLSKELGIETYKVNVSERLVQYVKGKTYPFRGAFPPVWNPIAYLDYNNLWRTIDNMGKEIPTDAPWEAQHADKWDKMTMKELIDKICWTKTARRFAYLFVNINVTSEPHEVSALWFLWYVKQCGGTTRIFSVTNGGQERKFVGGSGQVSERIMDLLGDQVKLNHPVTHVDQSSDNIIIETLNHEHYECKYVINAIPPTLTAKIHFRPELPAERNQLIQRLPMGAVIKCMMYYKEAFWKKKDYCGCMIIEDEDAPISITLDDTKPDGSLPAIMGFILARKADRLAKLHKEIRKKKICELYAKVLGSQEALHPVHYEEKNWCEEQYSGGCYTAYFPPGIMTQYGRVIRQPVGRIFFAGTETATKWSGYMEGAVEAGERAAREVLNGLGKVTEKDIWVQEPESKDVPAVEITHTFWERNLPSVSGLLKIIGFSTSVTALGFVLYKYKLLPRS

[3] = molecular target: T3, Amine oxidase [flavin-containing] A (Homo sapiens, UniProt P21397); assay: Inhibitory potency against Monoamine oxidase A
T3 sequence (P21397 whole entry): T2 sequence (P21397 whole entry)

[4] = molecular target: T2, Monoamine oxidase A; assay: Inhibitory potency against Monoamine oxidase A at 3 uM

Compound | IC50 [1] [µM] | inhibition at 10 µM [2] [%] | IC50 [3] [µM] | inhibition at 3 µM [4] [%]
CC(=O)/C=C/C=C/COc1ccc2ccc(=O)oc2c1 | 1.7 | 26 |  | 
Cc1c(C)c2ccc(OC/C=C/C3=CC(=O)C(C)(C)O3)cc2oc1=O | 0.631 |  | 11.2 | 
CC1(c2ccccc2)OC(/C=C/COc2ccc3ccc(=O)oc3c2)=CC1=O (stereo unspecified) | 1.51 |  |  | 0
C/C(=C\COc1ccc2ccc(=O)oc2c1)C1=CC(=O)C(C)(C)O1 [GEIPARVARIN] | 0.145 |  | 26.9 | 

The remaining molecules from weak to strong by IC50 [1], led by results:

IC50 [1] [µM] | inhibition at 10 µM [2] [%] | IC50 [3] [µM] | inhibition at 3 µM [4] [%] | Compound
0.589 |  | 15.1 |  | Cc1cc2ccc(OC/C=C/C3=CC(=O)C(C)(C)O3)cc2oc1=O
0.17 | 27 |  |  | Cc1cc(=O)oc2cc(OC/C=C/C3=CC(=O)C(C)(C)O3)ccc12
0.129 | 37 |  |  | C/C(=C\COc1ccc2c(C)c(C)c(=O)oc2c1)C1=CC(=O)C(C)(C)O1
0.0282 |  | 24 |  | CC1(C)OC(/C=C/COc2ccc3ccc(=O)oc3c2)=CC1=O
